≈ marks a conversion by molar mass, not a printed value. Calls of active or inactive are those of the source. The calls are words filed in the database; no cut-off is given here.
Tests used:
Bacillus pumilus [1] = experiment: Antibacterial activity against Bacillus pumilus MTCC 1456 assessed as growth inhibition at 500 ug/mL after 48 hr by agar diffusion method; format: functional; details: MTCC 1456, 48 h, read-out: DIZ
Aspergillus niger [2] = experiment: Antifungal activity against Aspergillus niger MTCC 2546 assessed as growth inhibition at 250 ug/mL after 48 hr by agar diffusion method; format: functional; details: for zone of inhibition at 250 µg/mL: MTCC 2546, 48 h, read-out: DIZ
Micrococcus luteus [3] = experiment: Antibacterial activity against Micrococcus luteus MTCC 1538 assessed as growth inhibition at 500 ug/mL after 48 hr by agar diffusion method; format: functional; details: MTCC 1538, 48 h, read-out: DIZ
Bacillus pumilus [4] = experiment: Antibacterial activity against Bacillus pumilus MTCC 1456 assessed as growth inhibition at 250 ug/mL after 48 hr by agar diffusion method; format: functional; details: MTCC 1456, 48 h, read-out: DIZ
Aspergillus niger [5] = experiment: Antifungal activity against Aspergillus niger MTCC 2546 assessed as growth inhibition at 100 ug/mL after 48 hr by agar diffusion method; format: functional, organism-based
Bacillus subtilis = experiment: Antibacterial activity against Bacillus subtilis MTCC 441 assessed as growth inhibition at 250 ug/mL after 48 hr by agar diffusion method; format: functional; details: MTCC 441, 48 h, read-out: DIZ
Penicillium chrysogenum [6] = experiment: Antifungal activity against Penicillium chrysogenum MTCC 161 assessed as growth inhibition at 100 ug/mL after 48 hr by agar diffusion method; format: functional, organism-based
Pseudomonas aeruginosa [7] = experiment: Antibacterial activity against Pseudomonas aeruginosa MTCC 424 assessed as growth inhibition at 1250 ug/mL after 48 hr by agar diffusion method; format: functional; details: MTCC 424, 48 h, read-out: DIZ
Pseudomonas fluorescens [8] = experiment: Antibacterial activity against Pseudomonas fluorescens MTCC 2421 assessed as growth inhibition at 1000 ug/mL after 48 hr by agar diffusion method; format: functional; details: MTCC 2421, 48 h, read-out: DIZ
Pseudomonas fluorescens [9] = experiment: Antibacterial activity against Pseudomonas fluorescens MTCC 2421 assessed as growth inhibition at 750 ug/mL after 48 hr by agar diffusion method; format: functional; details: MTCC 2421, 48 h, read-out: DIZ
Penicillium chrysogenum [10] = experiment: Antifungal activity against Penicillium chrysogenum MTCC 161 assessed as growth inhibition at 250 ug/mL after 48 hr by agar diffusion method; format: functional; details: for zone of inhibition at 250 µg/mL: MTCC 161, 48 h, read-out: DIZ
Penicillium chrysogenum [11] = experiment: Antifungal activity against Penicillium chrysogenum MTCC 161 assessed as growth inhibition after 24 hr by tube dilution method; format: functional; details: MTCC 161, 24 h
Staphylococcus aureus [12] = experiment: Antibacterial activity against Staphylococcus aureus MTCC 1430 assessed as growth inhibition after 24 hr by tube dilution method; format: functional; details: MTCC 1430, 24 h
Aspergillus niger [13] = experiment: Antifungal activity against Aspergillus niger MTCC 2546 assessed as growth inhibition after 24 hr by tube dilution method; format: functional; details: MTCC 2546, 24 h
Aspergillus niger [14] = experiment: Antifungal activity against Aspergillus niger MTCC 2546 assessed as growth inhibition at 1000 ug/mL after 48 hr by agar diffusion method; format: functional; details: MTCC 2546, 48 h, read-out: DIZ
Bacillus pumilus [15] = experiment: Antibacterial activity against Bacillus pumilus MTCC 1456 assessed as growth inhibition at 750 ug/mL after 48 hr by agar diffusion method; format: functional; details: MTCC 1456, 48 h, read-out: DIZ
Pseudomonas fluorescens [16] = experiment: Antibacterial activity against Pseudomonas fluorescens MTCC 2421 assessed as growth inhibition at 250 ug/mL after 48 hr by agar diffusion method; format: functional; details: MTCC 2421, 48 h, read-out: DIZ
Pseudomonas fluorescens [17] = experiment: Antibacterial activity against Pseudomonas fluorescens MTCC 2421 assessed as growth inhibition at 1250 ug/mL after 48 hr by agar diffusion method; format: functional; details: MTCC 2421, 48 h, read-out: DIZ
Aspergillus niger [18] = experiment: Antifungal activity against Aspergillus niger MTCC 2546 assessed as growth inhibition at 500 ug/mL after 48 hr by agar diffusion method; format: functional; details: MTCC 2546, 48 h, read-out: DIZ
Micrococcus luteus [19] = experiment: Antibacterial activity against Micrococcus luteus MTCC 1538 assessed as growth inhibition at 100 ug/mL after 48 hr by agar diffusion method; format: functional
Staphylococcus aureus [20] = experiment: Antibacterial activity against Staphylococcus aureus MTCC 1430 assessed as growth inhibition at 100 ug/mL after 48 hr by agar diffusion method; format: functional, organism-based
Penicillium chrysogenum [21] = experiment: Antifungal activity against Penicillium chrysogenum MTCC 161 assessed as growth inhibition at 1250 ug/mL after 48 hr by agar diffusion method; format: functional; details: MTCC 161, 48 h, read-out: DIZ
Pseudomonas aeruginosa [22] = experiment: Antibacterial activity against Pseudomonas aeruginosa MTCC 424 assessed as growth inhibition at 750 ug/mL after 48 hr by agar diffusion method; format: functional; details: MTCC 424, 48 h, read-out: DIZ
Escherichia coli = experiment: Antibacterial activity against Escherichia coli MTCC 1573 assessed as growth inhibition at 1000 ug/mL after 48 hr by agar diffusion method; format: functional; details: MTCC 1573, 48 h, read-out: DIZ

MIC (Penicillium chrysogenum [11]) | MIC (Staphylococcus aureus [12]) | MIC (Aspergillus niger [13]) | Compound | zone of inhibition at 500 µg/mL (Bacillus pumilus [1]) | zone of inhibition at 500 µg/mL (Micrococcus luteus [3]) | zone of inhibition at 250 µg/mL (Bacillus pumilus [4]) | growth inhibition (GI) (Aspergillus niger [5]) | zone of inhibition at 250 µg/mL (Bacillus subtilis) | growth inhibition (GI) (Penicillium chrysogenum [6]) | zone of inhibition at 1250 µg/mL (Pseudomonas aeruginosa [7]) | zone of inhibition at 1000 µg/mL (Pseudomonas fluorescens [8]) | zone of inhibition at 750 µg/mL (Pseudomonas fluorescens [9]) | zone of inhibition at 1000 µg/mL (Aspergillus niger [14]) | zone of inhibition at 750 µg/mL (Bacillus pumilus [15]) | zone of inhibition at 250 µg/mL (Pseudomonas fluorescens [16]) | zone of inhibition at 1250 µg/mL (Pseudomonas fluorescens [17]) | zone of inhibition at 500 µg/mL (Aspergillus niger [18]) | growth inhibition (GI) (Staphylococcus aureus [20]) | zone of inhibition at 1250 µg/mL (Penicillium chrysogenum [21]) | zone of inhibition at 750 µg/mL (Pseudomonas aeruginosa [22]) | also measured
200 µg/mL (≈ 500 µM) | 250 µg/mL (≈ 625 µM) | 200 µg/mL (≈ 500 µM) | O=C1CSC(c2ccccn2)N1c1nnc2c3cc(Cl)ccc3nc-2s1 (centres undefined) | 15 mm | 8 mm | 13 mm | inactive | 7 mm | inactive | 20 mm | 17 mm | 15 mm | 18 mm | 18 mm | 8 mm | 21 mm | 12 mm | inactive | 20 mm | 15 mm | zone of inhibition at 250 µg/mL (Aspergillus niger [2]): 9 mm; zone of inhibition at 250 µg/mL (Penicillium chrysogenum [10]): 9 mm; growth inhibition (GI) (Micrococcus luteus [19]): inactive; zone of inhibition at 1000 µg/mL (Escherichia coli): 20 mm
200 µg/mL (≈ 482 µM) | 200 µg/mL (≈ 482 µM) | 250 µg/mL (≈ 603 µM) | O=C1CSC(c2cccc3ccccc23)N1c1nnc2c3ccccc3nc-2s1 (centres undefined) | 11 mm | 8 mm | 8 mm | inactive | 10 mm | inactive | 20 mm | 19 mm | 16 mm | 15 mm | 15 mm | 10 mm | 22 mm | 8 mm | inactive | 15 mm | 15 mm | growth inhibition (GI) (Aspergillus niger [2]): inactive; zone of inhibition at 250 µg/mL (Penicillium chrysogenum [10]): 8 mm; growth inhibition (GI) (Micrococcus luteus [19]): inactive; zone of inhibition at 1000 µg/mL (Escherichia coli): 15 mm
150 µg/mL (≈ 410 µM) | 200 µg/mL (≈ 547 µM) | 150 µg/mL (≈ 410 µM) | O=C1CSC(c2ccccn2)N1c1nnc2c3ccccc3nc-2s1 (centres undefined) | 15 mm | 11 mm | 10 mm | inactive | 10 mm | inactive | 22 mm | 18 mm | 15 mm | 15 mm | 17 mm | 10 mm | 20 mm | 11 mm | inactive | 17 mm | 15 mm | zone of inhibition at 250 µg/mL (Aspergillus niger [2]): 8 mm; zone of inhibition at 250 µg/mL (Penicillium chrysogenum [10]): 9 mm; growth inhibition (GI) (Micrococcus luteus [19]): inactive; zone of inhibition at 1000 µg/mL (Escherichia coli): 18 mm
150 µg/mL (≈ 334 µM) | 150 µg/mL (≈ 334 µM) | 150 µg/mL (≈ 334 µM) | O=C1CSC(c2cccc3ccccc23)N1c1nnc2c3cc(Cl)ccc3nc-2s1 (centres undefined) | 13 mm | 8 mm | 10 mm | inactive | 7 mm | inactive | 18 mm | 20 mm | 15 mm | 15 mm | 15 mm | 11 mm | 24 mm | 11 mm | inactive | 18 mm | 13 mm | zone of inhibition at 250 µg/mL (Aspergillus niger [2]): 8 mm; zone of inhibition at 250 µg/mL (Penicillium chrysogenum [10]): 8 mm; growth inhibition (GI) (Micrococcus luteus [19]): inactive; zone of inhibition at 1000 µg/mL (Escherichia coli): 17 mm
250 µg/mL (≈ 742 µM) | 150 µg/mL (≈ 445 µM) | 250 µg/mL (≈ 742 µM) | CC1SCC(=O)N1c1nnc2c3cc(Cl)ccc3nc-2s1 (centres undefined) | 12 mm | 10 mm | 10 mm | inactive | 10 mm | inactive | 20 mm | 15 mm | 12 mm | 15 mm | 13 mm | 7 mm | 19 mm | 10 mm | inactive | 20 mm | 17 mm | growth inhibition (GI) (Aspergillus niger [2]): inactive; growth inhibition (GI) (Penicillium chrysogenum [10]): inactive; growth inhibition (GI) (Micrococcus luteus [19]): inactive; zone of inhibition at 1000 µg/mL (Escherichia coli): 19 mm
250 µg/mL (≈ 827 µM) | 250 µg/mL (≈ 827 µM) | 250 µg/mL (≈ 827 µM) | CC1SCC(=O)N1c1nnc2c3ccccc3nc-2s1 (centres undefined) | 12 mm | 12 mm | 9 mm | inactive | 13 mm | inactive | 24 mm | 21 mm | 17 mm | 14 mm | 18 mm | 10 mm | 24 mm | 8 mm | inactive | 17 mm | 15 mm | growth inhibition (GI) (Aspergillus niger [2]): inactive; growth inhibition (GI) (Penicillium chrysogenum [10]): inactive; zone of inhibition at 100 µg/mL (Micrococcus luteus [19]; MTCC 1538, 48 h, read-out: DIZ): 8 mm; zone of inhibition at 1000 µg/mL (Escherichia coli): 18 mm

From ChEMBL document CHEMBL3046001, “4-Thiazolidinone and 1-thia-3,4,9-triaza fluorene conjugates: synthesis, characterization and antimicrobial screening” (2013)
